Data from patent US7393845B2 (H. Lundbeck A/S, priority 2001, dated 2008).
Like-named read-outs stand apart in the source and are kept apart here.

Columns and labels:
[1] = target: T1, human 5-HT1A receptors (Homo sapiens, UniProt P08908); experiment: Inhibition of 3H-5-CT binding to human 5-HT1A receptors
T1 construct: expressed in transfected cells; cell homogenate
T1 sequence (P08908 1-422): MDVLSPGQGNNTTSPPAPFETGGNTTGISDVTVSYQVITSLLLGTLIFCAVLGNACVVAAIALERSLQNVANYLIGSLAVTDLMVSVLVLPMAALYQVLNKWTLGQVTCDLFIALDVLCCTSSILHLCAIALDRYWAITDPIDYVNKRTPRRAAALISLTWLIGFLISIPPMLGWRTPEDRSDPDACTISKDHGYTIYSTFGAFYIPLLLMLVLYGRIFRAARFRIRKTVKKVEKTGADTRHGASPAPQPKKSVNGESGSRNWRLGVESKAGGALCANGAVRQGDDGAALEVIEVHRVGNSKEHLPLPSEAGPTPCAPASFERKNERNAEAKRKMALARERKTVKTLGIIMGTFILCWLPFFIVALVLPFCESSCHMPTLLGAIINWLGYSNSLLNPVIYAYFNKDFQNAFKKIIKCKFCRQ
Experimental: The affinity of the compounds of the invention to 5-HT1A receptors was determined by measuring the inhibition of binding of a radioactive ligand at 5-HT1A receptors as described in the following test:
Inhibition of ^3H-5-CT Binding to Human 5-HT1A Receptors.
By this method the inhibition by drugs of the binding of the 5-HT1A agonist ^3H-5-carboxamido tryptamine (^3H-5-CT) to cloned human 5-HT1A receptors stably expressed in transfected HeLa cells (HA7) (Fargin, A. et al. J. Biol. Chem. 1989, 264, 14848) is determined in vitro. The assay was performed as a modification of the method described by Harrington, M. A. et al. J. Pharmacol. Exp. Ther. 1994, 268, 1098. Human 5-HT1A receptors (40 μg of cell homogenate) were incubated for 15 minutes at 37° C. in 50 mM Tris buffer at pH 7.7 in the presence of ^3H-5-CT. Non-specific binding was determined by including 10 μM of metergoline. The reaction was terminated by rapid filtration through Unifilter GF/B filters on a Tomtec Cell Harvester. Filters were counted in a Packard Top Counter.

[2] = target: T2, cloned 5-HT1A receptors (Homo sapiens, UniProt P08908); experiment: 5-HT1A antagonistic activity: antagonism of 5-HT induced inhibition of forskolin induced cAMP accumulation in transfected HeLa cells (HA7); type: cell-based
T2 construct: expressed in transfected cells
T2 sequence (P08908 1-422): T1 sequence (P08908 1-422)
Experimental: The 5-HT1A antagonistic activity of some of the compounds of the invention has been estimated in vitro at cloned 5-HT1A receptors stably expressed in transfected HeLa cells (HA7). In this test, 5-HT1A antagonistic activity is estimated by measuring the ability of the compounds to antagonize the 5-HT induced inhibition of forskolin induced cAMP accumulation. The assay was performed as a modification of the method described by Pauwels, P. J. et al. Biochem. Pharmacol. 1993, 45, 375.

[3] = cloned human 5-HT1A receptors in HeLa cells (HA7), 15 minutes at 37° C., pH 7.7, read-out: IC50, inhibition of 3H-5-CT binding to human 5-HT1A receptors

IC50 [1, 3] [nM]	IC50 [2] [nM]	SMILES	IC50 [1] [nM]
< 300	< 7000	Cc1cc(C(F)(F)F)c(C#N)c(SCCN2CCN(c3cccc4c3OCCO4)CC2)n1 [Compound 1b, 2-{2-[4-(2,3-Dihydrobenzo[1,4]dioxin-5-yl)piperazin-1-yl]ethylsulfanyl}-6-methyl-4-trifluoromethylnicotinonitrile]	–
–	< 7000	Cc1ccc(C#N)c(SCCN2CCN(c3ccc(C#N)c4c3OCCO4)CC2)n1 [Compound 1e, {2-[4-(8-Cyano-2,3-dihydrobenzo[1,4]dioxin-5-yl)piperazin-1-yl]ethylsulfanyl}-6-methylnicotinonitrile]	–
–	< 7000	N#Cc1ccc(N2CCN(CCCSc3ccc(C(F)(F)F)cn3)CC2)c2c1OCCO2 [Compound 1v, 2-{3-[4-(8-Cyano-2,3-dihydrobenzo[1,4]dioxin-5-yl)piperazin-1-yl]propylsulfanyl}-5-trifluoromethylpyridine]	–
–	–	N#Cc1cccnc1SCCN1CCN(c2cccc3c2OCCO3)CC1 [Compound 2a]	< 300
< 300	–	Cc1cc(C)c(C#N)c(SCCN2CCN(c3cc(Cl)cc4c3OCC(=O)N4)CC2)n1 [Compound 2aa, 2-[2-[4-(6-Chloro-2,3-dihydro-1,4-benzoxazin-3-on-8-yl)piperazin-1-yl]ethylsulfanyl]-4,6-dimethylnicotinonitrile]	–
< 300	–	N#Cc1cccnc1SCCN1CCN(c2cc(Cl)cc3c2OCCN3)CC1 [Compound 2ah, 2-[2-[4-(6-Chloro-2,3-dihydro-1,4-benzoxazin-8-yl)piperazin-1-yl]ethylsulfanyl]nicotinonitrile]	–
< 300	–	Cc1cc(C)c(C#N)c(SCCN2CCN(c3cc(Cl)cc4c3OCCN4)CC2)n1 [Compound 2ai, 2-[2-[4-(6-Chloro-2,3-dihydro-1,4-benzoxazin-8-yl)piperazin-1-yl]ethylsulfanyl]-4,6-dimethylnicotinonitrile]	–
< 300	–	Cc1cc(Cl)nc(SCCN2CCN(c3cc(Cl)cc4c3OCCN4)CC2)c1C#N [Compound 2aj, 6-Chloro-2-[2-[4-(6-chloro-2,3-dihydro-1,4-benzoxazin-8-yl)piperazin-1-yl]ethylsulfanyl]-4-methylnicotinonitrile]	–
< 300	–	Cc1cc(N2CCCCC2)nc(SCCN2CCN(c3ccc(C#N)c4c3OCCO4)CC2)c1C#N [Compound 2c, 2-{2-[4-(8-Cyano-2,3-dihydrobenzo[1,4]dioxin-5-yl)piperazin-1-yl]ethylsulfanyl}-4-methyl-6-(piperidin-1-yl)nicotinonitrile]	–
< 300	–	Cc1cc(C)c(S(=O)(=O)c2ccccc2)c(SCCN2CCN(c3cccc4c3OCCO4)CC2)n1 [Compound 2l, 2-{3-[4-(2,3-Dihydrobenzo[1,4]dioxin-5-yl)piperazin-1-yl]ethylsulfanyl}-4,6-dimethyl-3-phenylsulfonylpyridine]	–
< 300	–	Cc1cc(Cl)nc(SCCN2CCN(c3cccc4c3OCCO4)CC2)c1C#N [Compound 2o, 6-Chloro-2-{3-[4-(2,3-dihydrobenzo[1,4]dioxin-5-yl)piperazin-1-yl]ethylsulfanyl}-4-methylnicotinonitrile]	–
< 300	–	Cc1cc(C)c(C#N)c(SCCN2CCN(c3ccc(C#N)c4c3OCCO4)CC2)n1 [Compound 2s, 2-{3-[4-(8-Cyano-2,3-dihydrobenzo[1,4]dioxin-5-yl)piperazin-1-yl]ethylsulfanyl}-4,6-dimethylnicotinonitrile]	–
< 300	–	Cc1nc(SCCN2CCN(c3ccc(C#N)c4c3OCCO4)CC2)c(C#N)c(C)c1Cl [Compound 2u, 5-Chloro-2-{3-[4-(8-cyano-2,3-dihydrobenzo[1,4]dioxin-5-yl)piperazin-1-yl]ethylsulfanyl}-4,6-dimethylnicotinonitrile]	–
< 300	–	N#Cc1cccnc1SCCN1CCN(c2cc(Cl)cc3c2OCC(=O)N3)CC1 [Compound 2z, 2-[2-[4-(6-Chloro-2,3-dihydro-1,4-benzoxazin-3-on-8-yl)piperazin-1-yl]ethylsulfanyl]nicotinonitrile]	–
